In brackets after ≈: the same amount, converted by molar mass. Where two headings read alike, the source gives them in different places.
Assays:
Conditions in all cases: Klebsiella pneumoniae
[1] = tested on: K. pneumoniae NVT1001 strains with carbapenemase plasmids; test: Etest MIC of β-lactams, OmpK35/36 loss, ΔramR and/or carbapenemase (Table 9); format: cell-based, Klebsiella pneumoniae
Outline: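 Etest MICs, with values between standard dilutions rounded up to the next two-fold step, were measured in K. pneumoniae NVT1001 carrying PCR-cloned resistance genes on pACYC177 or pACYC184 plasmids. Interpretation used CLSI 2017 breakpoints, CLSI 2015 for cephalothin and EUCAST 2017 for moxifloxacin. For the blaOXA-48 strain, ceftazidime and cefotaxime were additionally tested by CLSI broth microdilution.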

[2] = tested on: K. pneumoniae NVT1001 and its ΔompK35/36 and/or ΔramR mutants; test: Etest MIC, OmpK35/36 loss and AcrAB-TolC overexpression (ΔramR) strains (Table 6); format: cell-based, Klebsiella pneumoniae
Outline: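 MICs were read by Etest strip following the manufacturer's instructions, and values falling between standard two-fold dilutions were rounded up to the next two-fold step. Ceftazidime and cefotaxime were also tested by CLSI broth microdilution and interpreted against CLSI 2017 breakpoints; cephalothin used CLSI 2015 and moxifloxacin EUCAST 2017.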

[3] = tested on: K. pneumoniae NVT1001 ΔramRΔompK35/36 mutant and its revertants; test: Etest MIC, ΔramRΔompK35/36 mutant and its revertants (Table 7); format: cell-based

C[C@@H](O)[C@H]1C(=O)N2C(C(=O)O)=C(S[C@@H]3CN[C@H](C(=O)Nc4cccc(C(=O)O)c4)C3)[C@H](C)[C@H]12 [Ertapenem]
MIC ([1]; IMP-8 on pACYC177, WT (NVT1001), read-out: MIC): 2 µg/mL
MIC ([1]; IMP-8 on pACYC177, Δ35 (ΔompK35 mutant)): 4 µg/mL
MIC ([1]; IMP-8 on pACYC177, Δ35/36 (ΔompK35/36 mutant)): > 32 µg/mL
MIC ([1]; IMP-8 on pACYC177, Δ36 (ΔompK36 mutant)): 2 µg/mL
MIC ([1]; IMP-8 on pACYC177, ΔramR mutant): 4 µg/mL
MIC ([1]; IMP-8 on pACYC177, ΔramRΔ35 (ΔramRΔompK35 mutant)): 4 µg/mL
MIC ([1]; IMP-8 on pACYC177, ΔramRΔ35/36 (ΔramRΔompK35/36 mutant)): > 32 µg/mL
MIC ([1]; IMP-8 on pACYC177, ΔramRΔ36 (ΔramRΔompK36 mutant)): > 32 µg/mL
MIC ([1]; KPC-2 on pACYC177, WT (NVT1001), read-out: MIC): 32 µg/mL
MIC ([1]; KPC-2 on pACYC177, Δ35 (ΔompK35 mutant)): 32 µg/mL
MIC ([1]; KPC-2 on pACYC177, Δ35/36 (ΔompK35/36 mutant)): > 32 µg/mL
MIC ([1]; KPC-2 on pACYC177, Δ36 (ΔompK36 mutant)): 32 µg/mL
MIC ([1]; KPC-2 on pACYC177, ΔramR mutant): > 32 µg/mL
MIC ([1]; KPC-2 on pACYC177, ΔramRΔ35 (ΔramRΔompK35 mutant)): > 32 µg/mL
MIC ([1]; KPC-2 on pACYC177, ΔramRΔ35/36 (ΔramRΔompK35/36 mutant)): > 32 µg/mL
MIC ([1]; KPC-2 on pACYC177, ΔramRΔ36 (ΔramRΔompK36 mutant)): > 32 µg/mL
MIC ([1]; KPC-3 on pACYC177, WT (NVT1001), read-out: MIC): 32 µg/mL
MIC ([1]; KPC-3 on pACYC177, Δ35 (ΔompK35 mutant)): 32 µg/mL
MIC ([1]; KPC-3 on pACYC177, Δ35/36 (ΔompK35/36 mutant)): > 32 µg/mL
MIC ([1]; KPC-3 on pACYC177, Δ36 (ΔompK36 mutant)): 32 µg/mL
MIC ([1]; KPC-3 on pACYC177, ΔramR mutant): 32 µg/mL
MIC ([1]; KPC-3 on pACYC177, ΔramRΔ35 (ΔramRΔompK35 mutant)): 32 µg/mL
MIC ([1]; KPC-3 on pACYC177, ΔramRΔ35/36 (ΔramRΔompK35/36 mutant)): > 32 µg/mL
MIC ([1]; KPC-3 on pACYC177, ΔramRΔ36 (ΔramRΔompK36 mutant)): > 32 µg/mL
MIC ([1]; NDM-1 on pACYC177, WT (NVT1001), read-out: MIC): 32 µg/mL
MIC ([1]; NDM-1 on pACYC177, Δ35 (ΔompK35 mutant)): > 32 µg/mL
MIC ([1]; NDM-1 on pACYC177, Δ35/36 (ΔompK35/36 mutant)): > 32 µg/mL
MIC ([1]; NDM-1 on pACYC177, Δ36 (ΔompK36 mutant)): > 32 µg/mL
MIC ([1]; NDM-1 on pACYC177, ΔramR mutant): > 32 µg/mL
MIC ([1]; NDM-1 on pACYC177, ΔramRΔ35 (ΔramRΔompK35 mutant)): > 32 µg/mL
MIC ([1]; NDM-1 on pACYC177, ΔramRΔ35/36 (ΔramRΔompK35/36 mutant)): > 32 µg/mL
MIC ([1]; NDM-1 on pACYC177, ΔramRΔ36 (ΔramRΔompK36 mutant)): > 32 µg/mL
MIC ([1]; OXA-48 on pACYC177, WT (NVT1001), read-out: MIC): 4 µg/mL
MIC ([1]; OXA-48 on pACYC177, Δ35 (ΔompK35 mutant)): 8 µg/mL
MIC ([1]; OXA-48 on pACYC177, Δ35/36 (ΔompK35/36 mutant)): > 32 µg/mL
MIC ([1]; OXA-48 on pACYC177, Δ36 (ΔompK36 mutant)): 8 µg/mL
MIC ([1]; OXA-48 on pACYC177, ΔramR mutant): 8 µg/mL
MIC ([1]; OXA-48 on pACYC177, ΔramRΔ35 (ΔramRΔompK35 mutant)): 8 µg/mL
MIC ([1]; OXA-48 on pACYC177, ΔramRΔ35/36 (ΔramRΔompK35/36 mutant)): > 32 µg/mL
MIC ([1]; OXA-48 on pACYC177, ΔramRΔ36 (ΔramRΔompK36 mutant)): > 32 µg/mL
MIC ([1]; VIM-1 on pACYC177, WT (NVT1001), read-out: MIC): 2 µg/mL
MIC ([1]; VIM-1 on pACYC177, Δ35 (ΔompK35 mutant)): 4 µg/mL
MIC ([1]; VIM-1 on pACYC177, Δ35/36 (ΔompK35/36 mutant)): > 32 µg/mL
MIC ([1]; VIM-1 on pACYC177, Δ36 (ΔompK36 mutant)): 2 µg/mL
MIC ([1]; VIM-1 on pACYC177, ΔramR mutant): 4 µg/mL
MIC ([1]; VIM-1 on pACYC177, ΔramRΔ35 (ΔramRΔompK35 mutant)): 4 µg/mL
MIC ([1]; VIM-1 on pACYC177, ΔramRΔ35/36 (ΔramRΔompK35/36 mutant)): > 32 µg/mL
MIC ([1]; VIM-1 on pACYC177, ΔramRΔ36 (ΔramRΔompK36 mutant)): > 32 µg/mL
MIC ([1]; no supplemental plasmid, WT (NVT1001), read-out: MIC): 0.015 µg/mL
MIC ([1]; no supplemental plasmid, Δ35 (ΔompK35 mutant)): 0.03 µg/mL
MIC ([1]; no supplemental plasmid, Δ35/36 (ΔompK35/36 mutant)): 2 µg/mL
MIC ([1]; no supplemental plasmid, Δ36 (ΔompK36 mutant)): 0.03 µg/mL
MIC ([1]; no supplemental plasmid, ΔramR mutant): 0.125 µg/mL
MIC ([1]; no supplemental plasmid, ΔramRΔ35 (ΔramRΔompK35 mutant)): 0.125 µg/mL
MIC ([1]; no supplemental plasmid, ΔramRΔ35/36 (ΔramRΔompK35/36 mutant)): 4 µg/mL
MIC ([1]; no supplemental plasmid, ΔramRΔ36 (ΔramRΔompK36 mutant)): 4 µg/mL
MIC ([2]; WT, NVT1001, read-out: MIC): 0.015 µg/mL (≈ 0.0315 µM)
MIC ([2]; Δ35, ΔompK35 mutant): 0.03 µg/mL (≈ 0.0631 µM)
MIC ([2]; Δ35/36, ΔompK35/36 mutant): 2 µg/mL (≈ 4.21 µM)
MIC ([2]; Δ36, ΔompK36 mutant): 0.03 µg/mL (≈ 0.0631 µM)
MIC ([2]; ΔramR mutant): 0.125 µg/mL (≈ 0.263 µM)
MIC ([2]; ΔramRΔ35, ΔramRΔompK35 mutant): 0.125 µg/mL (≈ 0.263 µM)
MIC ([2]; ΔramRΔ35/36, ΔramRΔompK35/36 mutant): 4 µg/mL (≈ 8.41 µM)
MIC ([2]; ΔramRΔ36, ΔramRΔompK36 mutant): 4 µg/mL (≈ 8.41 µM)
MIC ([3]; ΔramRΔompK35/36::ompK35/36 revertant): 0.125 µg/mL
MIC ([3]; ΔramRΔompK35/36::ompK35 revertant): 4 µg/mL
MIC ([3]; ΔramRΔompK35/36::ompK36 revertant): 0.125 µg/mL
MIC ([3]; ΔramRΔompK35/36::ramR revertant): 1 µg/mL
MIC ([3]; ΔramRΔompK35/36::ramR::ompK35/36 revertant): 0.015 µg/mL
MIC ([3]; ΔramRΔompK35/36::ramR::ompK35 revertant): 0.03 µg/mL
MIC ([3]; ΔramRΔompK35/36::ramR::ompK36 revertant): 0.03 µg/mL
MIC ([3]; ΔramRΔompK35/36 mutant): 4 µg/mL

Reference: patent publication US10760110B2, “Antibiotic testing and screening system” (priority 2017, dated 2020)
